Laboratory results from patent US7259172B2, “Inhibitors of β-lactamase” (priority 1999, dated 2007).
Structures can show the parent of a compound that is named as a salt. Where two headings read alike, the source gives them in different places.

What was measured:
[1] = biological target: P99 β-lactamase (class C) (Enterobacter cloacae, UniProt P05364); assay: biochemical
Experimental: Enzyme activity against the commercially available substrate, nitrocefin, was measured in the presence of various inhibitor concentrations. The P99 β-lactamase enzyme (1 mg/mL) was dissolved in 20 mM MOPS buffer at pH 7.50, and diluted 200-fold in the same buffer containing 0.1% BSA. Nitrocefin was stored as a 100 μM stock solution in 20 mM MOPS at pH 7.5. Stock solutions of test compounds were prepared in 10 mM MOPS at pH 7.5 (approximately 1 mg/mL)
The reaction at 25° C. was followed spectrophotometrically at 482 nm. IC50 values were determined from the dose-response plots of the initial rates vs. inhibitor concentration

[2] = system: Enterobacter cloacae [ATCC #23355]; assay type: cell-based; conditions: ratio antibiotic MIC without/with inhibitor
Source text: An increasing number of organisms produce enzymes that inhibit the actions of β-lactam antibiotics, so-called β-lactamases. […] The Minimum Inhibitory Concentration (MIC) test determines the lowest concentration of an antibiotic at which no visible bacterial growth occurs. This test permits comparisons to be made between bacterial growth in the presence of antibiotic alone (control) and bacterial growth in the presence of both an antibiotic and a novel (test) compound.
(§1) Frozen bacterial stocks were thawed to room temperature, and a few drops were placed on an appropriate plate; chocolate agar was used for H. influenzae, blood agar was used for all others. The plates were incubated overnight at 37° C. in air, except for H. influenzae, which was incubated in a CO2 incubator. The cultures were subcultured the following day, and the subcultures were again incubated overnight
A sterile loop was touched to 3 colonies and used to inoculate 1 mL of Mueller-Hinton Broth (MHB). […] 5 μL of the resultant inoculum solution contained ˜4×10^4 CFU/mL. Confirmation of the inoculum was performed by preparing a serial dilution to give 100 μL of a 5000-fold dilution, all of which was then plated onto an appropriate plate.
Each plate included 2 wells with no bacterial inoculum (negative control) and 2 wells with no test compound and no antibiotic (positive control). The plate was covered and incubated with gentle shaking for 16-20 hours at 37° C. in air (CO2 for H. influenzae). Absorbance was read at 540 nm (Multiskan Titertek mcc/340). Bacterial growth was scored as follows:
(§2) In some cases, the determination of MIC in the presence of test compound was performed at more than one concentration of the test compound.
The impact of the novel β-lactamase inhibitors is expressed as the ratio of the MIC determined in the absence of β-lactamase inhibitor to the MIC determined in the presence of the specified concentration of the β-lactamase inhibitor test compound.

[3] = system: Haemophilus influenzae [ATCC #43163]; assay: Antibiotic MIC in presence and absence of β-lactamase inhibitor (synergy); assay type: cell-based; conditions: ratio antibiotic MIC without/with inhibitor; inhibitor 10 μg/mL
Source text: (§3) An increasing number of organisms produce enzymes that inhibit the actions of β-lactam antibiotics, so-called β-lactamases. The “strength” of β-lactam antibiotics can be improved by pairing them with compounds that inhibit bacterial enzyme β-lactamases. The Minimum Inhibitory Concentration (MIC) test determines the lowest concentration of an antibiotic at which no visible bacterial growth occurs. This test permits comparisons to be made between bacterial growth in the presence of antibiotic alone (control) and bacterial growth in the presence of both an antibiotic and a novel (test) compound.
(§4) • β-lactamase positive strains • β-lactam antibiotics • β-lactamase inhibitor compounds • appropriate bacterial growth medium β-Lactamase Positive Strains • Klebsiella oxytoca [ATCC#51983] • Staphylococcus aureus [MGH: MA#50848] • Enterococcus faecalis [ATCC#49757] • Enterobacter cloacae [ATCC#23355] • Haemophilus influenzae [ATCC#43163] β-Lactam antibiotics
as §1
(§5) A sterile loop was touched to 3 colonies and used to inoculate 1 mL of Mueller-Hinton Broth (MHB). The bacterial solution was diluted 18.8-fold (20 μL of bacterial solution in […] of broth). 5 μL of the resultant inoculum solution contained ˜4×10^4 CFU/mL. Confirmation of the inoculum was performed by preparing a serial dilution to give 100 μL of a 5000-fold dilution, all of which was then plated onto an appropriate plate. After incubation overnight at 37° C., the plate had 75-150 colonies.
(§6) In each well of a 96-well microtiter plate was combined 5 μL of bacterial inoculum, 90 μL of antibiotic dilutions, and 5 μL of test compound (or media for determination of the MIC of the antibiotic in the absence of test compound). Each plate included 2 wells with no bacterial inoculum (negative control) and 2 wells with no test compound and no antibiotic (positive control). The plate was covered and incubated with gentle shaking for 16-20 hours at 37° C. in air (CO2 for H. influenzae). Absorbance was read at 540 nm (Multiskan Titertek mcc/340). Bacterial growth was scored as follows:
as §2
(§7) The impact of the novel β-lactamase inhibitors is expressed as the ratio of the MIC determined in the absence of β-lactamase inhibitor to the MIC determined in the presence of the specified concentration of the β-lactamase inhibitor test compound. […]

[4] = system: Staphylococcus aureus [MGH:MA #50848]; assay: as above; assay type: cell-based; conditions: ratio antibiotic MIC without/with inhibitor; inhibitor 10 μg/mL
Source text: as §3, §4, §1, §5, §6, §2, §7

[5] = Table 1
[6] = Class C β-lactamase [P99], Table 1, read-out: IC50 (μM) “C”

Chain of P99 β-lactamase (class C) (P05364 21-381): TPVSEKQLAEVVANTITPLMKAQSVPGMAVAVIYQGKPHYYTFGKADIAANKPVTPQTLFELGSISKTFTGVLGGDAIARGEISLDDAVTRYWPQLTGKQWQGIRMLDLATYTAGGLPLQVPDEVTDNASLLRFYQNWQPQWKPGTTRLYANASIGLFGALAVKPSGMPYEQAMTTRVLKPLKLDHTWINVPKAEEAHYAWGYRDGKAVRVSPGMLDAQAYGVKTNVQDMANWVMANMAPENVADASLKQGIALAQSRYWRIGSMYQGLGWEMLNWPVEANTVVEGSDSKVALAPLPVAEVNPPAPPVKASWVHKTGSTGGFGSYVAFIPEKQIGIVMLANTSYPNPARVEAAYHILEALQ

Compound	IC50 [1] [µM]	Synergy Class C E. Cl ([2]; inhibitor 10 μg/mL)	Synergy Class A H. In. [3]	also measured
CC(C)C(NS(=O)(=O)c1cccs1)P(=O)(O)Oc1ccc([N+](=O)[O-])cc1 (centres unmarked) [Compound 52, [2-Methyl-1-thiophene-2-sulfonylamino)-propyl]-phosphonic acid mono-(4-nitrophenyl) ester ammonium salt]	1400	4	1	Synergy Class C E. Cl ([2]; inhibitor 1 μg/mL): 2; Synergy Class A St. A. [4]: 1
CN(CP(=O)(O)Oc1ccc([N+](=O)[O-])cc1)S(=O)(=O)c1cccs1.N [Compound 47, [(2-Thiophenesulfonyl-N-methylamino)methyl]-phosphonic acid mono-(4-nitrophenyl) ester ammonium salt]	276	2	1	
[(2-Benzothiophenesulfonyl-N-phenylethylamino)-methyl]-phosphonic acid mono-(4-nitrophenyl) ester ammonium salt [Compound 143]				Log P [5]: 1.17; IC50 [1, 6]: 133 µM
O=[N+]([O-])c1ccc(OP(=O)(O)CNS(=O)(=O)c2ccc([N+](=O)[O-])cc2)cc1 [compound 12]	10			
CN(C)c1cccc(OP(=O)(O)CNS(=O)(=O)c2cccs2)c1 [compound 78]	3000			
O=[N+]([O-])c1ccc(OP(=O)(O)CNS(=O)(=O)c2ccccc2Br)cc1 [compound 23]	14			
CN(CP(=O)(O)Oc1ccc([N+](=O)[O-])cc1)S(=O)(=O)c1cc2ccccc2s1.N [Compound 142, [(2-Benzothiophenesulfonyl-N-methylamino)-methyl]-phosphonic acid mono-(4-nitrophenyl) ester ammonium salt]	1300	2		logP (physchem): -0.091
N.O=P(O)(Oc1cccnc1Cl)C(NS(=O)(=O)c1cccs1)c1ccccc1 (centres unmarked) [Compound 60, [Phenyl-(thiophene-2-sulfonylamino)-methyl]-phosphonic acid mono-(2-chloropyridin-3-yl) ester ammonium salt]	603	2	1	Synergy Class C E. Cl ([2]; inhibitor 1 μg/mL): 1; Synergy Class A St. A. [4]: 1
O=[N+]([O-])c1ccc(OP(=O)(O)CNS(=O)(=O)c2ccccn2)cc1 [compound 31]	136			
O=[N+]([O-])c1ccc(OP(=O)(O)CNS(=O)(=O)c2cc3ccccc3s2)cc1 [compound 77]	0.4			
O=[N+]([O-])c1ccc(OP(=O)(O)CNS(=O)(=O)c2ccccc2)cc1 [compound 7]	4			
N.O=[N+]([O-])c1ccc(OP(=O)(O)C(Cc2ccccc2)NS(=O)(=O)c2cccs2)cc1 (centres unmarked) [Compound 44, [2-Phenyl-1-(thiophene-2-sulfonylamino)-ethyl]-phosphonic acid mono-(4-nitrophenyl) ester ammonium salt]	192	2/2	1	Synergy Class C E. Cl ([2]; inhibitor 1 μg/mL): 2/2; Synergy Class A St. A. [4]: 1
O=[N+]([O-])c1ccc(OP(=O)(O)NNS(=O)(=O)c2ccccc2)cc1 [compound 189]				IC50 [1, 6]: 62 µM
[(2-Benzothiophenesulfonyl-N-ethylamino)-methyl]-phosphonic acid mono-(4-nitrophenyl) ester ammonium salt [Compound 144]				Log P [5]: −0.036; IC50 [1, 6]: 463 µM
N.O=P(O)(Oc1cccnc1Cl)C(Cc1ccccc1)NS(=O)(=O)c1cccs1 (centres unmarked) [Compound 46, [2-Phenyl-1-(thiophene-2-sulfonylamino)-ethyl]-phosphonic acid mono-(2-chloropyridin-3-yl) ester ammonium salt]	188	1/1	1	Synergy Class C E. Cl ([2]; inhibitor 1 μg/mL): 1/1; Synergy Class A St. A. [4]: 1
O=[N+]([O-])c1ccc(OP(=O)(O)CN(Cc2ccccc2)S(=O)(=O)c2cc3ccccc3s2)cc1 [Compound 145, (2-Benzothiophenesulfonyl-N-benzylamino)-methyl]-phosphonic acid mono-(4-nitrophenyl) ester ammonium salt]	94	4		logP (physchem): 0.86
O=P(O)(CNS(=O)(=O)c1cccs1)Oc1cccc(Cl)c1 [compound 48]	189			
N.O=[N+]([O-])c1ccc(OP(=O)(O)C(NS(=O)(=O)c2cccs2)c2ccccc2)cc1 (centres unmarked) [Compound 53, [Phenyl-(thiophene-2-sulfonylamino)-methyl]-phosphonic acid mono-(4-nitrophenyl) ester ammonium salt]	363	2/2	1	Synergy Class C E. Cl ([2]; inhibitor 1 μg/mL): 2/2; Synergy Class A St. A. [4]: 1
CC(C)C(NS(=O)(=O)c1cccs1)P(=O)(O)Oc1cccnc1Cl.N (centres unmarked) [Compound 54, [2-Methyl-1-(thiophene-2-sulfonylamino)-propyl]-phosphonic acid mono-(2-chloropyridin-3-yl) ester ammonium salt]	1800	2	1	Synergy Class C E. Cl ([2]; inhibitor 1 μg/mL): 1; Synergy Class A St. A. [4]: 1
O=P(O)(CNS(=O)(=O)c1ccsc1)Oc1cccnc1 [compound 55]	3600			
O=[N+]([O-])c1ccc(OP(=O)(O)CNS(=O)(=O)c2cccs2)cc1 [compound 15]	18			
